Experimental data taken from the C3SDB collision cross section collection.

conditions: [M+H]+; instrument: DT; stepped-field

| Structure (SMILES) | collision cross section (N2) [Å²] |
| --- | --- |
| CCCCCCCCCCCCCCCCCCCCCCC(=O)N[C@@H](COP(=O)([O-])OCC[N+](C)(C)C)[C@H](O)CCCCCCCCCCCCCCC [SM(41:00)] | 302.29 |
| CCCCCCCC/C=C\CCCCCCCC(=O)OC[C@H](COP(=O)(O)OC[C@H](N)C(=O)O)OC(=O)CCCCCCC/C=C\CCCCCCCC [PS(36:02)] | 280.92 |
| CCCCCCCCCCCCCCCCCCCCCC(=O)N[C@@H](CO[C@@H]1O[C@H](CO)[C@@H](O)C(O)C1O)[C@H](O)CCCCCCCCCCCCCCC (stereo partly drawn) [GlcCer(40:00)] | 296.24 |
| CCCCCCCCCCCCC=CC[C@@H](O)[C@H](CO[C@@H]1O[C@H](CO)[C@@H](O)C(O)C1O)NC(=O)CC=CCC=CCCCCCCCCCCCCC (stereo partly drawn) [GlcCer(38:03)] | 284.43 |
| CCCCCCCCCCCCC=CC[C@@H](O)[C@H](COP(=O)([O-])OCC[N+](C)(C)C)NC(=O)CCCCCCCCCCCCCCCCCCCCCCCC [SM(43:01)] | 306.91 |
| CCCCC/C=C\C/C=C\C/C=C\CCCCC(=O)OC[C@H](COP(=O)(O)OC[C@H](N)C(=O)O)OC(=O)CCCCCCCCC/C=C\CCCCCCCCCC [PS(40:04)] | 291.15 |
| CCCCCCCCCCCCCCCCCCCCCCCC(=O)N[C@@H](CO)[C@H](O)CCCCCCCCCCCCCCC [Cer(42:00)] | 280.05 |

Continued, values first:

| collision cross section (N2) [Å²] | Structure (SMILES) |
| --- | --- |
| 304.47 | CCCCCCCCCCCCC=CC[C@@H](O)[C@H](COP(=O)([O-])OCC[N+](C)(C)C)NC(=O)CC=CCCCCCCCCCCCCCCCCCCCCC [SM(43:02)] |
| 277.02 | CCCCCCCC/C=C\CCCCCCCC(=O)O[C@H](COC(=O)CCCCCCCCCCCCCCCCC)COP(=O)(O)OCCN [PE(36:01)] |
| 289.63 | CCCCCCCCCC/C=C\CCCCCCCCCC(=O)O[C@H](COC(=O)CCCCCCCCCCCCCCC)COP(=O)(O)OC[C@H](N)C(=O)O [PS(38:01)] |
| 299.5 | CCCCC/C=C\C/C=C\CCCCCCCCCCCC(=O)O[C@H](COC(=O)CCCCCCCCCCCCCCCCCCC)COP(=O)(O)OC[C@H](N)C(=O)O [PS(42:02)] |
| 298.03 | CCCCC/C=C\C/C=C\CCCCCCCCCCCC(=O)O[C@H](COC(=O)CCCCCCCCC/C=C\CCCCCCCC)COP(=O)(O)OC[C@H](N)C(=O)O [PS(42:03)] |
| 295.93 | CCCCCCCC/C=C\CCCCCCCCCC(=O)OC[C@H](COP(=O)(O)OC[C@H](N)C(=O)O)OC(=O)CCCCCCCCCCCCCCCCCCC [PS(40:01)] |

same assay, conditions: [M+K]+; instrument: DT; stepped-field

| collision cross section (N2) [Å²] | Structure (SMILES) |
| --- | --- |
| 284.45 | CC/C=C\C/C=C\C/C=C\C/C=C\CCCCC(=O)O[C@H](COC(=O)CCCCCCCCCCCCCCCCCCC)COP(=O)(O)OCCN [PE(38:04)] |
| 289.17 | CCCCC/C=C\C=C/CCCCCCCCC(=O)O[C@H](COC(=O)CCCCCCCCCCCCCCCCC)COP(=O)([O-])OCC[N+](C)(C)C [PC(36:02)] |
| 295.44 | CCCCC/C=C\C/C=C\C/C=C\CCCCC(=O)OC[C@H](COP(=O)(O)OC[C@H](N)C(=O)O)OC(=O)CCCCCCCCC/C=C\CCCCCCCCCC [PS(40:04)] |

| Structure (SMILES) | collision cross section (N2) [Å²] |
| --- | --- |
| CCCCCCCC/C=C\CCCCCCCC(=O)OC[C@H](COP(=O)(O)OC[C@H](N)C(=O)O)OC(=O)CCCCCCC/C=C\CCCCCCCC [PS(36:02)] | 285.23 |

same assay, conditions: [M+Na-2H2O]+; instrument: DT; stepped-field

| collision cross section (N2) [Å²] | Structure (SMILES) |
| --- | --- |
| 317.53 | CCCCCCCCCCCCC=CC[C@@H](O)[C@H](CO[C@@H]1O[C@H](CO)[C@@H](O)C(O)C1O)NC(=O)CCCCCCCCCCCCCCCCCCCCCCCCCCCCCC (stereo partly drawn) [GlcCer(49:01)] |

same assay, conditions: [M+Na]+; instrument: DT; stepped-field

| Structure (SMILES) | collision cross section (N2) [Å²] |
| --- | --- |
| CCCCC/C=C\C/C=C\C/C=C\CCCCCCC(=O)OC[C@H](COP(=O)(O)OC[C@H](N)C(=O)O)OC(=O)CCCCCCCCCCC/C=C\C/C=C\CCCCC [PS(42:05)] | 297.67 |
| CCCCC/C=C\C/C=C\C/C=C\CCCCC(=O)OC[C@H](COP(=O)(O)OCCN)OC(=O)CCCCCCCCCCC/C=C\C/C=C\CCCCC [PE(40:05)] | 289.38 |
| CCCCCCCCCCCCC=CC[C@@H](O)[C@H](CO[C@@H]1O[C@H](CO)[C@@H](O)C(O)C1O)NC(=O)CC=CCC=CCCCCCCCCCCCCCCCCC (stereo partly drawn) [GlcCer(42:03)] | 297.28 |
| CCCCCCCCCCCCC=CC[C@@H](O)[C@H](CO[C@@H]1O[C@H](CO)[C@@H](O)C(O)C1O)NC(=O)CC=CCCCCCCCCCCCCCCCCCCC (stereo partly drawn) [GlcCer(41:02)] | 296.1 |
| CCCCCCCCCCCCCCCCCCCCCC(=O)N[C@@H](CO[C@@H]1O[C@H](CO)[C@@H](O)C(O)C1O)[C@H](O)CCCCCCCCCCCCCCC (stereo partly drawn) [GlcCer(40:00)] | 297.72 |
| CCCCCCCCCCCCC=CC[C@@H](O)[C@H](CO[C@@H]1O[C@H](CO)[C@@H](O)C(O)C1O)NC(=O)CC=CCC=CCCCCCCCCCCCCCCCCCC (stereo partly drawn) [GlcCer(43:03)] | 300.75 |
| CCCCCCCCCCCCC=CC[C@@H](O)[C@H](COP(=O)([O-])OCC[N+](C)(C)C)NC(=O)CCCCCCCCCCCCCCCCCCCCCCCC [SM(43:01)] | 304.16 |
| CCCCC/C=C\C/C=C\C/C=C\CCCCC(=O)OC[C@H](COP(=O)(O)OC[C@H](N)C(=O)O)OC(=O)CCCCCCCCC/C=C\CCCCCCCCCC [PS(40:04)] | 295.22 |
| CCCCCCCCCCCCCCCCCCCCCCCC(=O)N[C@@H](CO)[C@H](O)CCCCCCCCCCCCCCC [Cer(42:00)] | 281.85 |

Now from value to compound:

| collision cross section (N2) [Å²] | Structure (SMILES) |
| --- | --- |
| 282.21 | CCCCCCCC/C=C\CCCCCCCC(=O)OC[C@H](COP(=O)(O)OCCN)OC(=O)CCCCCCC/C=C\CCCCCCCCC [PE(37:02)] |
| 296 | CCCCCCCCCCCCC=CC[C@@H](O)[C@H](COP(=O)([O-])OCC[N+](C)(C)C)NC(=O)CCCCCCCCCCCCCCCCCCCCC [SM(40:01)] |
| 280.32 | CCCCCCCCCCCCC=CC[C@@H](O)[C@H](COP(=O)([O-])OCC[N+](C)(C)C)NC(=O)CC=CCCCCCCCCCCCCCC [SM(36:02)] |
| 281.66 | CCCCCCCC/C=C\CCCCCCCCCC(=O)O[C@H](COCCCCCCCCCCCCCCCC)COP(=O)(O)OCCN [PE(o36:01)] |
| 275.79 | CCCCCC/C=C\CCCCCCCC(=O)O[C@H](COCCCCCCCCCCCCCCCCCC)COP(=O)(O)OCCN [PE(o34:01)] |
| 288.63 | CCCCC/C=C\C=C/CCCCCCCCC(=O)O[C@H](COC(=O)CCCCCCCCCCCCCCCCC)COP(=O)([O-])OCC[N+](C)(C)C [PC(36:02)] |
| 303.6 | CCCCCCCCCCCCC=CC[C@@H](O)[C@H](COP(=O)([O-])OCC[N+](C)(C)C)NC(=O)CC=CCCCCCCCCCCCCCCCCCCCCC [SM(43:02)] |
| 282.21 | CCCCCCCC/C=C\CCCCCCCC(=O)O[C@H](COC(=O)CCCCCCCCCCCCCCCCC)COP(=O)(O)OCCN [PE(36:01)] |
| 302 | CCCCC/C=C\C/C=C\CCCCCCCCCCCC(=O)O[C@H](COC(=O)CCCCCCCCCCCCCCCCCCC)COP(=O)(O)OC[C@H](N)C(=O)O [PS(42:02)] |
| 285.05 | CC/C=C/C=C/C=C/C=C/CCCCCCCC(=O)O[C@H](COC(=O)CCCCCCCCCCCCCCCCC)COP(=O)([O-])OCC[N+](C)(C)C [PC(36:04)] |

same assay, conditions: [M-H]-; instrument: DT; stepped-field

| collision cross section (N2) [Å²] | Structure (SMILES) |
| --- | --- |
| 276.04 | CC/C=C\C/C=C\C/C=C\C/C=C\CCCCC(=O)O[C@H](COC(=O)CCCCCCCCCCCCCCCCCCC)COP(=O)(O)OCCN [PE(38:04)] |
| 286.53 | CCCCC/C=C\C/C=C\CCCCCCCCCCCC(=O)O[C@H](COC(=O)CCCCCCC/C=C\CCCCCC)COP(=O)(O)OC[C@H](N)C(=O)O [PS(38:03)] |
| 280.89 | CCCCC/C=C\C/C=C\C/C=C\CCCCC(=O)OC[C@H](COP(=O)(O)OCCN)OC(=O)CCCCCCCCCCC/C=C\C/C=C\CCCCC [PE(40:05)] |
| 273.62 | CCCCCCCC/C=C\CCCCCCCC(=O)O[C@H](COC(=O)CCCCCCCCCCCCCCCCC)COP(=O)(O)OCCN [PE(36:01)] |
| 291.3 | CCCCC/C=C\C/C=C\C/C=C\CCCCC(=O)OC[C@H](COP(=O)(O)OC[C@H](N)C(=O)O)OC(=O)CCCCCCCCC/C=C\CCCCCCCCCC [PS(40:04)] |

| Structure (SMILES) | collision cross section (N2) [Å²] |
| --- | --- |
| CCCCCCCC/C=C\CCCCCCCC(=O)OC[C@H](COP(=O)(O)OC[C@H](N)C(=O)O)OC(=O)CCCCCCC/C=C\CCCCCCCC [PS(36:02)] | 281.82 |
